Here are results for eight molecules from EP0272791A2 (priority 1986, dated 1988).

The subject of data set [1] is multiple myeloma. Kind of data set: differential staining cytotoxicity assay (DiSC), fresh tumor specimens. Particulars: metachronous assays, no intervening therapy, patient MM-B, two dates.
The test system of data set [2] is CML-blast crisis. The description is as above. Particulars: patient CML-BC, 11/09/82 before and 12/14/82 after V + P.
In data set [3] the test system is ALL. Particulars: for Treated patients, Resistant / Untreated patients, Resistant / Treated patients, Sensitive / Untreated patients, Sensitive: No. of patients; for Treated patients, Resistant / Untreated patients, Resistant: resistant: > 30% cell survival; for Treated patients, Sensitive / Untreated patients, Sensitive: sensitive: < 30% cell survival; for in vitro activity (in words): active = < 30% cell survival, concentrations of Table 1; for % of all specimens tested which were "sensitive" in vitro (< 30% cell survival): dexamethasone 0.4, cytarabine 3.3, vincristine […] continuous 4-day exposure, mechlorethamine 3.5, doxorubicin 1.67 μg/ml 1-hour exposure.

Data set [4] has as its system CLL. Particulars: for Treated patients, Sensitive / Untreated patients, Sensitive: sensitive: < 30% cell survival.
In data set [5] the test system is ANLL. Briefly: differential staining cytotoxicity assay (DiSC), fresh tumor specimens. The data set is classed as cell-based, human. To be noted: for % of all specimens tested which were "sensitive" in vitro (< 30% cell survival): dexamethasone 0.4, cytarabine 3.3, vincristine […] continuous 4-day exposure, mechlorethamine 3.5, doxorubicin 1.67 μg/ml 1-hour exposure.

The test system of data set [6] is CLL. Briefly: cells. Particulars: Homo sapiens, read-out: average % cell survival in vitro, Vincristine 0.08 µg/ml, continuous exposure; metachronous assays, no intervening therapy.
The test system of data set [7] is tumor cell specimens. Kind of data set: differential staining cytotoxicity assay (DiSC), general statements on drug exposure. The data set is classed as cell-based, human. To be noted: for activity in the assay at a 1-hour exposure (in words): must be tested at a continuous exposure.
Data set [8] concerns Assorted solid tumors. Kind of data set: differential staining cytotoxicity assay (DiSC), fresh tumor specimens. To be noted: for % of all specimens tested which were "sensitive" in vitro (< 30% cell survival): dexamethasone 0.4 μg/ml, cytarabine […], continuous 4-day exposure. The data set is classed as cell-based, human.
Data set [9] concerns non-Hodgkin's lymphoma, multiple myeloma, and blast crisis CML. To be noted: data not shown; neoplasms considered together.
The subject of data set [10] is Small Cell Lung Cancer. Briefly: differential staining cytotoxicity assay (DiSC), fresh tumor specimens. The data set is classed as cell-based, human. To be noted: active = < 30% cell survival; concentrations of Table 1.
Data set [11] deals with Non-Small Cell Lung Cancer. The data set is described as above. The data set is classed as cell-based, human. To be noted: active = < 30% cell survival; concentrations of Table 1.
Setting [12] is: Vincristine 0.08 µg/ml, continuous 4-day exposure.
Setting [13] is: Vincristine 0.08 µg/ml, continuous exposure, metachronous assays, no intervening therapy.
Where [14] appears, read: cells from relapsed patients compared with untreated patients.
Setting [15] is: active = < 30% cell survival, concentrations of Table 1.
Setting [16] is: Dexamethasone 0.4 µg/ml, continuous 4-day exposure.
The mark [17] stands for this setting: Dexamethasone 4.0 µg/ml, continuous 4-day exposure.
[18] abbreviates: No. of patients, Dexamethasone 0.4 µg/ml, continuous 4-day exposure, resistant: > 30% cell survival.
Setting [19] is: No. of patients, Dexamethasone 0.4 µg/ml, continuous 4-day exposure.
[20] abbreviates: No. of patients, Dexamethasone 4.0 µg/ml, continuous 4-day exposure, resistant: > 30% cell survival.
Setting [21] is: No. of patients, Dexamethasone 4.0 µg/ml, continuous 4-day exposure.
Where [22] appears, read: Doxorubicin 1.67 µg/ml, 1-hr exposure.
[23] abbreviates: Cytarabine 1.0 µg/ml, continuous 4-day exposure.

Values joined by “and” are separate entries in the source; they are usually repeats but may differ in a detail not shown here. Equal entries are not always repeated. “Also recorded” adds a separate entry of the source. Where two headings read alike, the source gives them in different places.

Turning to `CC[C@]1(O)C[C@H]2CN(CCc3c([nH]c4ccccc34)[C@@](C(=O)OC)(c3cc4c(cc3OC)N(C=O)[C@H]3[C@@](O)(C(=O)OC)[C@H](OC(C)=O)[C@]5(CC)C=CCN6CC[C@]43[C@@H]65)C2)C1` [Vincristine, vincristine], the viability at 0.08 µg/mL is 0% in [1] (Homo sapiens, read-out: average % cell survival in vitro, Vincristine 0.08 µg/ml, continuous exposure); 69% in data set [2] (Homo sapiens, read-out: % cell survival, Vincristine 0.08 μg/ml, continuous exposure); 46% in data set [6]. The “average % cell survival in vitro” value in [1] (Vincristine 0.08 µg/ml, continuous exposure) is 0%; in data set [3] (setting [13]), 44% and 71%; in [4] (setting [13]), 48%. Besides, the “% cell survival” value in [2] (Vincristine 0.08 μg/ml, continuous exposure) was 71%. In [3] (setting [12]), the “Treated patients, Resistant” value was 10. The “Untreated patients, Resistant” value in data set [3] (setting [12]) came out at 6. In addition, the “Treated patients, Sensitive” value in data set [3] (setting [12]) turned out to be 1. Also, in data set [3] (setting [12]), the “Untreated patients, Sensitive” value came to 10. In addition, in [3], the “in vitro activity (in words)” value is “considerably more sensitive”. Also, the “resistance in the assay, relapsed (treated) vs untreated patients (in words)” value (“resistance … vs untreated patients (in words)” below) in data set [3] (setting [14]) is recorded as “significantly more resistant”. In addition, the “% of all specimens tested which were "sensitive" in vitro (< 30% cell survival)” value was 56% (25) in data set [3] and 22% (23) in [5]. Also, in [7], the “activity in the assay at a 1-hour exposure (in words)” value (shortened to “activity in the assay”) is reported as “not active”.

Regarding `C[C@@H]1C[C@H]2[C@@H]3CCC4=CC(=O)C=C[C@]4(C)[C@@]3(F)[C@@H](O)C[C@]2(C)[C@@]1(O)C(=O)CO` [Dexamethasone, dexamethasone], the “in vitro activity (in words)” value in [8] (setting [15]) is “not active”; in [3], “active”. For the same molecule, the “% of all specimens tested which were "sensitive" in vitro (< 30% cell survival)” value is 0% (34) in [8], 61% (33) in [3] and 7% (41) in data set [5]. Moreover, the “% cell survival” value in data set [2] (Dexamethasone 4.0 μg/ml, continuous exposure) worked out at 68%. Also, the viability at 4 µg/mL in data set [2] (Homo sapiens, read-out: % cell survival, Dexamethasone 4.0 μg/ml, continuous exposure) came to 73%. For the same molecule, the “Treated patients, Resistant” value turned out to be 7 in [3] (setting [16]), 7 in data set [3] (setting [17]), 13 in data set [4] (setting [18]) and 10 in data set [4] (setting [20]). For the same molecule, the “Untreated patients, Resistant” value was found to be 6 in data set [3] (setting [16]), 5 in data set [3] (setting [17]), 18 in [4] (setting [18]) and 15 in data set [4] (setting [20]). In addition, the “Treated patients, Sensitive” value in data set [3] (setting [16]) is 4; in data set [3] (setting [17]) it was 3; in data set [4] (setting [19]), 2; in data set [4] (setting [21]) it was 2. In addition, the “Untreated patients, Sensitive” value was determined as 16 in [3] (setting [16]), 13 in data set [3] (setting [17]), 10 in data set [4] (setting [19]) and 10 in data set [4] (setting [21]). The “activity in the assay” value in [7] is recorded as “not active”.

As for `O=NN(CCCl)C(=O)NCCCl` [Carmustine, carmustine], the viability at 11 µg/mL in [1] (Homo sapiens, 1 h, read-out: average % cell survival in vitro, Carmustine […], 1 hour exposure) came to 15%.

For `O=P1(N(CCCl)CCCl)NCCCO1` (centres unmarked) [cyclophosphamide], the “activity in vitro (in words)” value in [7] is listed as “not active in vitro”.

Consider `N[C@@H](Cc1ccc(N(CCCl)CCCl)cc1)C(=O)O` [Melphalan, melphalan], for which the “Treated patients, Resistant” value in [4] was 11 and 8.

With `COc1cccc2c1C(=O)c1c(O)c3c(c(O)c1C2=O)C[C@@](O)(C(=O)CO)C[C@@H]3O[C@H]1C[C@H](N)[C@H](O)[C@H](C)O1` [Doxorubicin, doxorubicin], the “resistance in vitro, previously treated vs previously untreated patients (in words)” value in data set [9] is “significantly more resistant”. In addition, in data set [2] (Doxorubicin 1.6 μg/ml, 1 hour exposure, 60 min), the “% cell survival” value is 86% and 59%. In [3] (setting [22]), the “Treated patients, Resistant” value is 7; the “Untreated patients, Resistant” value is given as 1; the “Treated patients, Sensitive” value came to 4; the “Untreated patients, Sensitive” value is reported as 10. Further, in data set [3], the “in vitro activity (in words)” value is “somewhat more sensitive than ANLL” and the “% of all specimens tested which were "sensitive" in vitro (< 30% cell survival)” value is listed as 72% (18). Moreover, the “resistance … vs untreated patients (in words)” value in [3] (setting [14]) is on record as “significantly more resistant”. The “resistance in vitro, previously treated vs previously untreated patients (in words)” value in [4] (prior treatment with alkylating agents (usually chlorambucil or cyclophosphamide) with or without prednisone) was “significantly more resistant”. Further, in data set [5], the “% of all specimens tested which were "sensitive" in vitro (< 30% cell survival)” value is 48% (27).

`Nc1ccn([C@@H]2O[C@H](CO)[C@@H](O)[C@@H]2O)c(=O)n1` [Cytarabine, cytarabine]: in [8], the “% of all specimens tested which were "sensitive" in vitro (< 30% cell survival)” value is on record as 3% (31). In [3] (setting [23]), the “Treated patients, Resistant” value is listed as 7; the “Untreated patients, Resistant” value was determined as 4; the “Treated patients, Sensitive” value was 2; the “Untreated patients, Sensitive” value is 6. Moreover, in data set [3], the “in vitro activity (in words)” value is listed as “active” and the “% of all specimens tested which were "sensitive" in vitro (< 30% cell survival)” value was 68% (19). Moreover, the “resistance … vs untreated patients (in words)” value in data set [3] (the higher concentration of cytarabine) was “significantly more resistant”. For the same molecule, the “in vitro activity (in words)” value in data set [5] (setting [15]) was “active”. Moreover, in data set [5], the “% of all specimens tested which were "sensitive" in vitro (< 30% cell survival)” value is recorded as 76% (34). For the same molecule, the “activity in the assay” value in [7] was “not active”.

With `N.N.[Cl][Pt][Cl]` [Cisplatin, cisplatin], the “in vitro activity (in words)” value in [10] is listed as “high activity”; in data set [11], “most active agent tested; also recorded: moderate activity”; in data set [4] (setting [15]) it was “completely refractory”.
